Data: patent publication US20170233346A1, “CRYSTALLINE ANTI-TRICHOPHYTON AGENTS AND PREPARATION PROCESS THEREOF” (MEIJI SEIKA PHARMA CO., LTD., priority 2014, published 2017)

Assay: Crystal form stability test (preservation, then powder X-ray diffraction and content)
Format: physicochemical
Method: Using high-speed imaging plate X-ray diffraction system (R-AXIS VII) manufactured by Rigaku Corporation, X-ray diffraction data of the crystals of the compound of the formula (1) were measured at −180° C. with a CuK α radiation (50 kV, 90 mA, λ=1.5418 Å). A sample was filled in a glass capillary having an inner diameter of 0.7 mm. The diffraction images were collected under the conditions a camera length of 300 mm, an oscillation angle of 40°, and an exposure time of 45 minutes. A contour integration treatment of the diffraction image was carried out by an R-AXIS display software available from Rigaku Corporation (integration range: 45 to 135°). The maximum value of the obtained integrated intensity was made 100, relative intensities of the respective integral intensities were calculated, and plotting them based on the diffraction angle 20 to prepare a diffraction pattern. With regard to the crystals of the compounds of the formula (1), these were preserved under the following mentioned temperature and humidity conditions, and then powder X-ray diffractions were measured. […] Term: 12 months Preservation condition: 25±2° C./[…] Packaging form: Polyethylene double bag/fiber drum Term: 6 months Preservation condition: 40±2° C./75±5% RH* *: RH: relative humidity Packaging form: Polyethylene double bag/fiber drum

[1] = Test 1, 25° C./60% RH, at starting
[2] = Test 1, 25° C./60% RH, preservation period 3 months
[3] = Test 1, 25° C./60% RH, preservation period 6 months
[4] = Test 1, 25° C./60% RH, preservation period 9 months
[5] = Test 1, 25° C./60% RH, preservation period 12 months
[6] = Test 2, 40° C./75% RH, preservation period 1 month
[7] = Test 2, 40° C./75% RH, preservation period 3 months
[8] = Test 2, 40° C./75% RH, preservation period 6 months

Content (%) [1]: (99.7%)*
Crystal form (powder X-ray diffraction) [1]: Form A
Content (%) [2]: (99.9%)*
Crystal form (powder X-ray diffraction) [2]: Form A
Content (%) [3]: (98.9%)*
Crystal form (powder X-ray diffraction) [3]: Form A
Content (%) [4]: (99.9%)*
Crystal form (powder X-ray diffraction) [4]: Form A
Content (%) [5]: (99.0%)*
Crystal form (powder X-ray diffraction) [5]: Form A
Change in crystal form after preservation (Test 1 and Test 2, either of the measurement times): no change in crystal form was observed
Content (%) [6]: (100.3%)*
Crystal form (powder X-ray diffraction) [6]: Form A
Content (%) [7]: (100.6%)*
Crystal form (powder X-ray diffraction) [7]: Form A
Content (%) [8]: (100.4%)*
Crystal form (powder X-ray diffraction) [8]: Form A
Period over which Form A crystals were extremely stable and high purity (even under the accelerated conditions): ≥ 6 months
Compound: Cc1ccc(-n2nc(C)cc2C)c(O)c1 [formula (1), 2-(3,5-dimethyl-1H-pyrazol-1-yl)-5-methylphenol]
